Results reported in article PMC12670408, “Backbone Alterations in Cyclic Peptides Influence Both Membrane Permeability and Biological Activity” (Journal of Medicinal Chemistry, 2025).
Read-outs that look alike come from different tables or passages of the source. One block for each molecule: values may come before it. Numbered stars: 1 amine (or outer) side, 2 acyl side, 3 side chain; on linkers, the order of the positions; unused ones are H or OH. Square brackets hold non-standard residues; d marks the D form. Peptide text beside a SMILES is read from it. Ile(ψThz) = CC[C@H](C)[C@H](N[*:1])c1nc(C(=O)[*:2])cs1

Experiments:
[1] = cited from earlier work
[2] = set-up: method as in Fairlie group; conditions: ref Fairlie group; cited from earlier work
[3] = CHI-IAM chromatography (immobilized artificial membrane); assay type: physicochemical; conditions: IAM.PC.DD2 column, ammonium acetate buffer pH 7.4
From the text: With all peptides in hand we first set out to estimate their passive membrane permeability using the immobilized artificial membrane (IAM) chromatography technique. , An IAM column is packed with a reverse phase like material modified with phospholipids to mimic a cellular membrane. After analysis of a compound its retention time is compared to a set of calibration compounds to yield a CHI-IAM value. A higher value indicates a stronger membrane interaction, which can be correlated to passive membrane permeability.
CHI-IAM chromatography was carried out on an Agilent 1200 Series LC (Agilent Technologies, USA) equipped with a 4.6 mm × 100 mm to 150 mm IAM.PC.DD2 column from Regis Technologies, Inc., eluting at 1.5 mL/min, eluting over a gradient of 0% – 85% MeCN with a 50 mM ammonium acetate buffer adjusted to pH 7.4 over 4.75 min.

[4] = Variable-temperature 1H-NMR of amide protons; assay type: physicochemical
Protocol: The solvent exposure of peptide backbone NH groups can be studied using variable temperature ^1H-NMR experiments, where the change in chemical shift of the amide protons is observed upon increasing temperature. […] These experiments were performed for compounds SA-A1, SA-B1, SA-B2, and SA-B3 in both DMSO-d6, as a mimic of a polar environment, and CDCl3, as a mimic of the hydrophobic membrane environment (Figures S2–S9, and Tables and ). […] For SA-B3 the Ile-6 amide was also more exposed to solvent, but the change in Phe-2 shift was much smaller.
Variable-temperature nuclear magnetic resonance (VT-NMR) measurements were conducted using a Bruker Avance Neo 600 (av600) spectrometer equipped with a CP2.1 TMO 600 S3 cryoprobe. The ^1H NMR data was collected over a temperature range from 293.15 to 323.15 K, with temperature increments of 5 °C.

U2OS cells = experiment: Cell painting assay (induction, cell count); assay type: cell-based
Protocol: Therefore, we subjected our set of compounds to the cell painting assay that is agnostic toward specific biological targets. In our cell-painting setup, the compounds were tested at different concentrations (10, 30, and 50 μM) in U2OS cells followed by treatment with dyes for mitochondria (Mito Tracker Deep Red), endoplasmic reticulum (concanavalin-Alexa488 conjugate), actin, (Phalloidin-Alexa594 conjugate), DNA (Hoechst 33342), nucleoli and cytoplasmic RNA (SYTO 14), and Golgi and plasma membranes (WGA-Alexa594 conjugate). Next, the cells were imaged in various channels at 9 sites per well and a total of 579 morphological parameters were extracted. An induction score was calculated from this analysis, which represents the number of parameters for which the change was significant in comparison to the DMSO control.
The described assay follows closely the method described by Bray et al.
Initially, 5 μL U2OS medium were added to each well of a 384-well plate (Revvity PhenoPlate 384). Subsequently, U2OS cell were seeded with a density of 1600 cells per well in 20 μL medium. The plate was incubated for 10 min at ambient temperature, followed by an additional 4 h incubation (37 °C, 5% CO2). […] Incubation with compound was performed for 20 h (37 °C, 5% CO2). Subsequently, mitochondria were stained with Mito Tracker Deep Red (Thermo Fisher Scientific, Cat. No. M22426). The Mito Tracker Deep Red stock solution (1 mM) was diluted to a final concentration of 100 nM in prewarmed medium. The medium was removed from the plate leaving 10 μL residual volume and 25 μL of the Mito Tracker solution were added to each well. The plate was incubated for 30 min in darkness (37 °C, 5% CO2). To fix the cells 7 μL of 18.5% formaldehyde in PBS were added, resulting in a final formaldehyde concentration of […]. Subsequently, the plate was incubated for another 20 min in darkness (RT) and washed three times with 70 μL of PBS. (Agilent Washer Elx405). Cells were permeabilized by addition of 25 μL 0.1% Triton X-100 to each well, followed by 15 min incubation (RT) in darkness. The cells were washed three times with PBS leaving a final volume of 10 μL. To each well 25 μL of a staining solution were added, which contains 1% BSA, 5 μL/ml Phalloidin (Alexa594 conjugate, Thermo Fisher Scientific, A12381), 25 μg/mL Concanavalin A (Alexa488 conjugate, Thermo Fisher Scientific, Cat. No. C11252), 5 μg/mL Hoechst 33342 (Sigma, Cat. No. B2261–25 mg), 1.5 μg/mL WGA-Alexa594 conjugate (Thermo Fisher Scientific, Cat. No. W11262) and 1.5 μM SYTO 14 solution (Thermo Fisher Scientific, Cat. No. S7576). The plate is incubated for 30 min (RT) in darkness and washed three times with 70 μL PBS. After the final washing step, the PBS was not aspirated. The plates were sealed and centrifuged for 1 min at 50g.
The generated images were processed with the CellProfiler package (https://cellprofiler.org/, version 3.0.0) on a computing cluster of the Max Planck Society to extract 1716 cell features per microscope site. The data was then further aggregated as medians per well (9 sites → 1 well), then over the three replicates.
From the total set of 1716 features, a subset of highly reproducible and robust features was determined using the procedure described by Woehrmann et al. in the following way: Two biological repeats of one plate containing reference compounds were analyzed. For every feature, its full profile over each whole plate was calculated.
The phenotypic profiles were compiled from the Z-scores of all individual cellular features, where the Z-score is a measure of how far away a data point is from a median value.

H-D exchange NMR = assay type: physicochemical; conditions: 20% D2O and 80% DMSO-d6
From the text: To further confirm the solvent accessibility of the amides we performed H-D exchange experiments using SA-A1, SA-B1, and SA-B3 by adding 20% D2O to samples dissolved in DMSO-d 6 (Table and Figures S10–S12). The rate of exchange of the amide proton for deuterium is an indicator of solvent accessibility. […] In line with their observations, the Ala-1 NH exchanges rather fast in SA-A1, which is in stark contrast to Ala-1 in SA-B1 and SA-B3 where it is fully stable. […] The Ile-4 amide is always strongly shielded which is in line with it being involved in a stable hydrogen bond with the Ala-1 carbonyl group as for SA-A1. […] Unfortunately, for SA-B3 this peak overlapped with aromatic peaks prohibiting quantification.
The samples were dissolved in DMSO-d 6 and 20% D2O was added. Immediately after ^1H NMR data was collected at 0, 10, 20, 30, and 240 min. The peak area was normalized to a peak of constant height.

[5] = set-up: method as in Nielsen et al.; conditions: D2O (10%)/DMSO-d6 (90%), value in brackets, ref Nielsen et al.; cited from earlier work
[6] = CDCl3, value in brackets, ref Bockus et al.
[7] = DMSO-d6, value in brackets, ref Nielsen et al.

CHI-IAM [3]: 39.71 ± 0.16
ΔδNH/ΔT Ala-1 ([4]; CDCl3): –0.1 ppb/K
ΔδNH/ΔT Ile-4 ([4]; CDCl3): –3.5 ppb/K
ΔδNH/ΔT Ile-6 ([4]; CDCl3): –3.6 ppb/K
ΔδNH/ΔT Phe-2 ([4]; CDCl3): –10.2 ppb/K
ΔδNH/ΔT Ala-1 ([4]; DMSO-d6): –0.4 ppb/K
ΔδNH/ΔT Ile-4 ([4]; DMSO-d6): –1.7 ppb/K
ΔδNH/ΔT Ile-6 ([4]; DMSO-d6): –3.8 ppb/K
ΔδNH/ΔT Phe-2 ([4]; DMSO-d6): –4.2 ppb/K
H-D exchange rate Ala-1 (H-D exchange NMR): 57 min
H-D exchange rate Ile-4 (H-D exchange NMR): > 240 min
H-D exchange rate Ile-6 (H-D exchange NMR): 341 min
H-D exchange rate Phe-2 (H-D exchange NMR): 48 min
SMILES: CC[C@H](C)[C@@H]1NC(=O)[C@@H]2CCCN2C(=O)[C@H](Cc2ccccc2)NC(=O)[C@H](C)NC(=O)c2csc(n2)[C@H]([C@@H](C)CC)NC(=O)[C@@H]2CCCN2C1=O [SA-A1, Sanguinamide A] (cyclo(AFPIP[Ile(ψThz)]))
ΔδNH/ΔT Ala-1 [1, 6]: 0.1 ppb/K
ΔδNH/ΔT Ile-4 [1, 6]: −3.1 ppb/K
ΔδNH/ΔT Ile-6 [1, 6]: −3.1 ppb/K
ΔδNH/ΔT Phe-2 [1, 6]: −9.1 ppb/K
ΔδNH/ΔT Ala-1 [1, 7]: 0.4 ppb/K
ΔδNH/ΔT Ile-4 [1, 7]: −1.5 ppb/K
ΔδNH/ΔT Ile-6 [1, 7]: −4.0 ppb/K
ΔδNH/ΔT Phe-2 [1, 7]: −4.2 ppb/K
bioavailability (F) [2]: 7%
Cell count at 10 μM (U2OS cells): 103%
Induction at 10 μM (U2OS cells): 1.4%
Cell count at 30 μM (U2OS cells): 97%
Induction at 30 μM (U2OS cells): 32.6%
Cell count at 50 μM (U2OS cells): 88%
Induction at 50 μM (U2OS cells): 29.7%
H-D exchange rate Ala-1 [5]: 188 min
H-D exchange rate Ile-4 [5]: 6000 min
H-D exchange rate Ile-6 [5]: 1500 min
H-D exchange rate Phe-2 [5]: 380 min

CHI-IAM [3]: 33.97 ± 0.13
SMILES: CC[C@H](C)[C@@H]1NC(=O)[C@@H]2CCCN2C(=O)[C@H]([C@@H](C)CC)NC(=O)[C@@H]2CCCN2C(=O)[C@H](Cc2ccccc2)NC(=O)[C@H](C)NC(=O)[C@H](CS)NC1=O [SA-A3] (cyclo(AFPIPIC))
Cell count at 10 μM (U2OS cells): 102%
Induction at 10 μM (U2OS cells): 0.7%
Cell count at 30 μM (U2OS cells): 102%
Induction at 30 μM (U2OS cells): 1%
Cell count at 50 μM (U2OS cells): 98%
Induction at 50 μM (U2OS cells): 1%
